Like-named read-outs stand apart in the source and are kept apart here.
Experiments:
[1] = PK part of PK/PD study in MDA-MB-436 subcutaneous xenograft model: plasma and tumor concentration; assay type: in vivo, BALB/c nude mice; conditions: female, BALB/c nude, mouse, single oral 0.3 mg/kg
Text: • a. […] Cells were passaged once every three days. […] The resulting suspension was placed in an ice box for later use.
• a. […] During the inoculation, the cell suspension was mixed well. […] The nude mouse was bound with the left hand. […] Inoculation started after 30 seconds. • d.
• a. Grouping: According to the growth of the tumor, when the tumor grew to a volume of 300-500 mm^3, tumor-bearing mice were selected according to the experimental design and randomly grouped (3 mice per each time point) to start the PK/PD test. • b. Fasting: All tumor-bearing mice were fasted (with free access to water) overnight (fasting >8 hours) before the administration. • c. Administration: Except for the blank control group, a single oral administration was carried out according to the time of the experimental design, and the administration volume was 10 mL/kg. • d. Sample collection: The mice were euthanized by CO2 asphyxiation according to the time of the experimental design, and the samples were collected. One plasma sample and three tumor tissue samples were collected from each animal.
Plasma collection: After the mouse was euthanized, blood was collected from the heart. The collected blood was added to a centrifuge tube containing EDTA-K2. The tube was manually inverted 3 to 4 times, placed on ice, and centrifuged at 8000 rpm at 4° C. for 5 minutes. 100 μL of the centrifuged plasma was transferred to a new labeled centrifuge tube. One aliquot of plasma was quickly freezed on dry ice, and stored in a refrigerator at −80±10° C. for PK test.
Tumor tissue collection: After the blood collection, the tumor tissue was collected. The collected tumor tissue was divided into 3 aliquots (˜0.1 g each), placed into labeled 2 mL centrifuge tubes, and stored in a refrigerator at −80±10° C. for PK or PD test.
a. Sample Process: • 1) 4 parts by weight of 20% methanol in water was added to 1 part by weight of the tumor tissue sample, and homogenized at 40 Hz for 400 seconds.

[2] = Bidirectional permeability through Caco-2 cell model; conditions: human
Protocol: 100 μL of transport buffer (HBSS containing 10 μM test compound, 0.5% BSA, and 0.5% DMSO) was added to the administration end of A to B • b. 300 μL of transport buffer (HBSS containing 0.5% BSA) was added to the receiving end of A to B • c. 300 μL of transport buffer (HBSS containing 10 μM test compound, 0.5% BSA, and 0.5% DMSO) was added to the administration end of B to A • d. 100 μL of transport buffer (HBSS containing 0.5% BSA) was added to the receiving end of B to A • e. Incubation for 2 hours • d. Samples were taken, processed and detected by mass spectrometry.
• Instrument: liquid chromatography; • Chromatographic column: Waters XSelect HSS T3 C18 (2.1*50 mm, 2.5 μm); • Mobile phase: phase A: water containing 0.1% formic acid; phase B: acetonitrile containing 0.1% formic acid.
• Instrument: API4000 liquid chromatography-mass spectrometer; • Ion source: electrospray ionization source (ESI); • Detection method: positive ion detection; • Scan mode: multiple reaction monitoring (MRM) mode.

PARP1 enzyme = PARP1 enzyme (Homo sapiens (Human), UniProt P09874); assay: Inhibitory activity on PARP1 enzyme (chemiluminescence); assay type: biochemical
Sequence of PARP1 enzyme (P09874 whole entry): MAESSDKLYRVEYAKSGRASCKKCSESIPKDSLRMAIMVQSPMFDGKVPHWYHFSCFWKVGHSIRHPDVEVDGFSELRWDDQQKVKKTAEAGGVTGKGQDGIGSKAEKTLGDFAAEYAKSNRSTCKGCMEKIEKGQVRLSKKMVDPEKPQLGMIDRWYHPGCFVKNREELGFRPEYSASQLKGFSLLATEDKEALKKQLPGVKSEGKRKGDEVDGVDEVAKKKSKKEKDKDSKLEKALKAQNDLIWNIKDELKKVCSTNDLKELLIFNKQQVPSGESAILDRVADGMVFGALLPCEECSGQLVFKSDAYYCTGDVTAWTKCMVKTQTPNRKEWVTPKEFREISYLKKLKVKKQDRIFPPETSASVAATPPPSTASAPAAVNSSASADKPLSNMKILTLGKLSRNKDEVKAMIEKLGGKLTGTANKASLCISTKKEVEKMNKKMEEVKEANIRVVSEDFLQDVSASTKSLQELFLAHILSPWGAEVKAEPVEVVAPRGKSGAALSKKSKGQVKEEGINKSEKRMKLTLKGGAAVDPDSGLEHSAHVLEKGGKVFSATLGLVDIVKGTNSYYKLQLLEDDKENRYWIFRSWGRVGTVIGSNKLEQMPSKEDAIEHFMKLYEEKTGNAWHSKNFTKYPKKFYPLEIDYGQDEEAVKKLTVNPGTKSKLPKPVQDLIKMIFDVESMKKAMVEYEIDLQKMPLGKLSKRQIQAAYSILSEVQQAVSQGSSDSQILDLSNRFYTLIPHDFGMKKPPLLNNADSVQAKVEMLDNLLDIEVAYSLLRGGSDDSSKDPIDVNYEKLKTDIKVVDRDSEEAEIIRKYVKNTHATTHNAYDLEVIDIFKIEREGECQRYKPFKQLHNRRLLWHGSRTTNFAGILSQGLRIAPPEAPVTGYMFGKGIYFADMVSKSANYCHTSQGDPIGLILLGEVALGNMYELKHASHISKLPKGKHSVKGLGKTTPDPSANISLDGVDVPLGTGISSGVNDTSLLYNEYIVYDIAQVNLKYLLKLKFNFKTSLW
Protocol: The inhibitory activity of the compounds on PARP1 enzyme was determined by the chemiluminescence method in the experiment. The experiment was carried out in a 384-well plate. Coating histones in a 384-well plate: 5×histone solution was diluted 5 folds with PBS, added to a 384-well ELISA plate (25 μL per well), and incubated at 4° C. overnight. […] A mixture of PARP reaction biotin-labeled substrate, activated DNA, 10×PARP buffer and water was added (12.5 μL per well). Compound solutions with different concentrations were formulated using the experimental buffer (10% DMSO aqueous solution containing 1.25 mM DTT). The final detection concentration started from 100 nM, with 3-fold dilution and 8 concentrations. The compound solutions were added to the reaction wells of the 384-well plate (2.5 μL per well). 2.5 μL of 10% DMSO aqueous solution containing 1.25 mM DTT was added to the positive control well and blank well (2.5 μL per well). […] The plate was centrifuged at 1000 rpm for 1 minute, and reacted at room temperature for 60 minutes. […] Streptavidin-HRP solution diluted 50 folds with Blocking buffer 3 was added (25 μL per well), and the plate was incubated at room temperature for 30 minutes. […] The luminescence reaction solution obtained by mixing ECL substrate A and ELISA ECL substrate B (1:1) was added (50 μL per well) for reaction. The chemiluminescence values were measured immediately with a BioTek Synergy H1 or Envision instrument.
The chemiluminescence values were measured with a BioTek Synergy H1 or Envision instrument. The inhibition rate was calculated, and the concentration and inhibition rate were fitted to a nonlinear regression curve using Graphpad Prism software to obtain the IC50 value.

[3] = system: BRCA2 Knockout DLD-1 cells; assay: Inhibition of proliferation of BRCA2 Knockout DLD-1 cells (CellTiter-Glo); assay type: cell-based; conditions: Homo sapiens, about 144 hours incubation
Protocol: BRCA2 Knockout DLD-1 cells were cultured using RPMI1640 culture medium containing 10% FBS to an appropriate cell density. The cells were collected, and adjusted to an appropriate cell concentration using the complete culture medium. The cell suspension was spread on a 96-well plate (90 μL per well), and placed in a 37° C., 5% CO2 incubator overnight. Compound solutions of different concentrations were formulated using DMSO and culture medium, and vehicle control was set up. The compound solutions were added to the 96-well plate (10 μL per well), and the plate was incubated in a 37° C., 5% CO2 incubator for about 144 hours. CellTiter-Glo solution was added, and the plate was shaken to mix evenly, and incubated in the dark for 10 to 30 minutes. The values were measured with a Synergy H1 or Envision microplate reader.
The inhibition rate was calculated using the luminescence signal value. The concentration and inhibition rate were fitted to a nonlinear regression curve using Graphpad Prism software to obtain the IC50 value.

[4] = plasma, read-out: Mean plasma concentration
[5] = tumor tissue, read-out: Mean tumor tissue concentration

Compound `CCc1cc2ncc(CN3CCN(c4ccc(C(=O)NC)nc4)CC3)cc2[nH]c1=O` [AZD5305, reference compound] has a concentration at 1 h [1, 4] of 1460 ng/mL, a concentration at 2 h [1, 4] of 1370 ng/mL and a concentration at 4 h [1, 4] of 1120 ng/mL. The concentration at 6 h [1, 4] was 713 ng/mL, the concentration at 8 h [1, 4] was 584 ng/mL and the concentration at 16 h [1, 4] was 252 ng/mL. The concentration at 24 h [1, 4] was 102 ng/mL, the concentration at 32 h [1, 4] was 41 ng/mL and the concentration at 48 h [1, 4] was 10 ng/mL. It also gave a concentration at 72 h [1, 4] of 6 ng/mL, a concentration at 1 h [1, 5] of 41 ng/g and a concentration at 2 h [1, 5] of 100 ng/g. For the same compound, the concentration at 4 h [1, 5] was 131 ng/g, the concentration at 6 h [1, 5] was 117 ng/g and the concentration at 8 h [1, 5] was 95 ng/g. The concentration at 16 h [1, 5] was 94 ng/g, the concentration at 24 h [1, 5] was 61 ng/g and the concentration at 32 h [1, 5] was 59 ng/g. For the same compound, the concentration at 48 h [1, 5] was 44 ng/g and the concentration at 72 h [1, 5] was 31 ng/g.
With `CCc1cc2ncc(CN3CCC(c4ccc(C(=O)NC)nc4)CC3)cc2[nH]c1=O` [Example 2, 5-(1-((7-Ethyl-6-oxo-5,6-dihydro-1,5-naphthyridin-3-yl)methyl)piperidin-4-yl)-N-methylpicolinamide] the Papp A→B at 2 h, 10 μM [2] was 9.42 ×10⁻⁶ cm/s and the Papp B→A at 2 h, 10 μM [2] was 13.5 ×10⁻⁶ cm/s.
Compound `CCc1cc2ncc(CN3CC=C(c4ccc(C(=O)NOC)nc4)CC3)cc2[nH]c1=O` [Example 30, 1′-((7-Ethyl-6-oxo-5,6-dihydro-1,5-naphthyridin-3-yl)methyl)-N-methoxy-1′,2′,3′,6′-tetra hydro-[3,4′-bipyridine]-6-carboxamide] has an IC50 (PARP1 enzyme) of 1.4 nM and an IC50 [3] of 3.2 nM.
Compound `CCc1cc2c(C#N)cc(CN3CC=C(c4ccc(C(=O)NC)nc4)CC3)cc2[nH]c1=O` [Example 42, 1′-((5-Cyano-3-ethyl-2-oxo-1,2-dihydroquinolin-7-yl)methyl)-N-methyl-1′,2′,3′,6′-tetrahydro-[3,4′-bipyridine]-6-carboxamide] has an IC50 (PARP1 enzyme) of 1.3 nM and an IC50 [3] of 3 nM.
Work on `CCc1cc2ncc(CN3CC=C(c4ncc(C)n4C)CC3)cc2[nH]c1=O` [Example 53, 7-((4-(1,5-Dimethyl-1H-imidazol-2-yl)-3,6-dihydropyridin-1(2H)-yl)methyl)-3-ethyl-1,5-naphthyridin-2(1H)-one] yielded an IC50 (PARP1 enzyme) of 0.96 nM and an IC50 [3] of 7.5 nM.
With `CCc1cc2ncc(CN3CC=C(c4ccc(C(=O)NC)nc4Cl)CC3)cc2[nH]c1=O` [Example 56, 2-Chloro-1′-((7-ethyl-6-oxo-5,6-dihydro-1,5-naphthyridin-3-yl)methyl)-N-methyl-1′,2′,3′,6′-tetrahydro-[3,4′-bipyridine]-6-carboxamide] the IC50 (PARP1 enzyme) was 1.3 nM and the IC50 [3] was 1 nM.
For `CCc1cc2ncc(CN3CC=C(c4ccc(C(=O)NCC#N)nc4)CC3)cc2[nH]c1=O` [Example 58, N-(Cyanomethyl)-1′-((7-ethyl-6-oxo-5,6-dihydro-1,5-naphthyridin-3-yl)methyl)-1′,2′,3′,6′-tetrahydro-[3,4′-bipyridine]-6-carboxamide], the IC50 (PARP1 enzyme) was 0.9 nM and the IC50 [3] was 2.4 nM.
In the case of `CCc1cc2ncc(CN3CC=C(c4ccc(C(=O)NC5(C#N)CC5)nc4)CC3)cc2[nH]c1=O` [Example 59, N-(1-Cyanocyclopropyl)-1′-((7-ethyl-6-oxo-5,6-dihydro-1,5-naphthyridin-3-yl)methyl)-1′,2′,3′,6′-tetrahydro-[3,4′-bipyridine]-6-carboxamide], the IC50 (PARP1 enzyme) is reported as 0.8 nM and the IC50 [3] is reported as 2.7 nM.
For `CCc1cc2ncc(CN3CCC(c4ccc(C(=O)NC)nc4)=C(F)C3)cc2[nH]c1=O` [Example 81, 1′-((7-Ethyl-6-oxo-5,6-dihydro-1,5-naphthyridin-3-yl)methyl)-5′-fluoro-N-methyl-1′,2′,3′,6′-tetrahydro-[3,4′-bipyridine]-6-carboxamide], the IC50 (PARP1 enzyme) was 0.9 nM and the IC50 [3] was 1.5 nM.
Compound `CCc1cc2ncc(CN3CC=C(c4ccc(C(=O)NCC(F)(F)F)nc4)CC3)cc2[nH]c1=O` [Example 83, 1′-((7-Ethyl-6-oxo-5,6-dihydro-1,5-naphthyridin-3-yl)methyl)-N-(2,2,2-trifluoroethyl)-1′,2′,3′,6′-tetrahydro-[3,4′-bipyridine]-6-carboxamide] has an IC50 (PARP1 enzyme) of 1.4 nM and an IC50 [3] of 1.4 nM.
`CNC(=O)c1ccc(C2=CCN(Cc3cnc4cc(C(F)(F)F)c(=O)[nH]c4c3)CC2)cn1` [Example 84, N-Methyl-1′-((6-oxo-7-(trifluoromethyl)-5,6-dihydro-1,5-naphthyridin-3-yl)methyl)-1′,2′,3′,6′-tetrahydro-[3,4′-bipyridine]-6-carboxamide] showed an IC50 (PARP1 enzyme) of 2.7 nM and an IC50 [3] of 5.1 nM.
For `CCc1cc2ncc(C(C)N3CC=C(c4ccc(C(=O)NC)nc4)CC3)cc2[nH]c1=O` (stereo not drawn) [Example 93, 1′-(1-(7-Ethyl-6-oxo-5,6-dihydro-1,5-naphthyridin-3-yl)ethyl)-N-methyl-1′,2′,3′,6′-tetrahydro-[3,4′-bipyridine]-6-carboxamide], the IC50 (PARP1 enzyme) was 2.1 nM and the IC50 [3] was 3.6 nM.
For `CCc1cc2ncc(CN3CCN(c4cnc5c(NC)ncc(F)c5c4)CC3)cc2[nH]c1=O` [Example 94, 3-Ethyl-7-((4-(5-fluoro-8-(methylamino)-1,7-naphthyridin-3-yl)piperazin-1-yl)methyl)-1,5-naphthyridin-2(1H)-one], the IC50 [3] was 8.4 nM.
Compound `[2H]C([2H])([2H])Nc1nccc2cc(N3CCN(Cc4cnc5cc(CC)c(=O)[nH]c5c4)CC3)cnc12` [Example 98, 3-Ethyl-7-((4-(8-((methyl-d3)amino)-1,7-naphthyridin-3-yl)piperazin-1-yl)methyl)-1,5-naphthyridin-2(1H)-one] has an IC50 [3] of 1.7 nM.
In the case of `CCc1cc2ncc(CN3CC=C(c4cnc5c(NC)nccc5c4)CC3)cc2[nH]c1=O` [Example 102, 3-Ethyl-7-((4-(8-(methylamino)-1,7-naphthyridin-3-yl)-3,6-dihydropyridin-1(2H)-yl)methyl)-1,5-naphthyridin-2(1H)-one], the IC50 [3] is reported as 5.2 nM.

Reference: patent US20240228490A1, “HETEROCYCLIC DERIVATIVE INHIBITOR AND PREPARATION METHOD THEREFOR AND APPLICATION THEREOF” (Shanghai Hansoh Biomedical Co., Ltd., priority 2021, published 2024)
